# Test results reported in patent publication US4590203A, “Derivatives of thiophene-2-carboxylic acid and their pharmaceutically acceptable acid or base addition salts and use in treatment of conditions caused by thromboxane A2” (Laevosan-Gesellschaft m.b.H. & Co. KG, priority 1982, dated 1986).
# Experiments:
# platelet aggregation [1] = assay: proaggregatory activity and primary wave ADP aggregation; type: cell-based
# Description: Neither LG 82-4-00 nor LG 82-4-01 had vasoconstrictor, proaggregatory or antagonistic activity or affected primary wave ADP aggregation (P >0,05).
# thromboxane synthetase = target: T1, thromboxane synthetase (Homo sapiens, UniProt P24557); assay: inhibition of thromboxane (TX) formation in thrombin stimulated washed platelets, TXB2 specific radioimmunoassay; type: cell-based; details: for IC50: 0,6 IU/ml thrombin stimulated human washed platelets, TXB2 specific radioimmunoassay; for inhibition of TXB2-formation: concentration not given; for specificity as inhibitor of thromboxane synthetase: in vitro-study, inhibition of TX formation on platelet aggregation
# T1 construct: thrombin stimulated human washed platelets; endogenous in cells; host or cells: human washed platelets
# T1 sequence (P24557 1-533): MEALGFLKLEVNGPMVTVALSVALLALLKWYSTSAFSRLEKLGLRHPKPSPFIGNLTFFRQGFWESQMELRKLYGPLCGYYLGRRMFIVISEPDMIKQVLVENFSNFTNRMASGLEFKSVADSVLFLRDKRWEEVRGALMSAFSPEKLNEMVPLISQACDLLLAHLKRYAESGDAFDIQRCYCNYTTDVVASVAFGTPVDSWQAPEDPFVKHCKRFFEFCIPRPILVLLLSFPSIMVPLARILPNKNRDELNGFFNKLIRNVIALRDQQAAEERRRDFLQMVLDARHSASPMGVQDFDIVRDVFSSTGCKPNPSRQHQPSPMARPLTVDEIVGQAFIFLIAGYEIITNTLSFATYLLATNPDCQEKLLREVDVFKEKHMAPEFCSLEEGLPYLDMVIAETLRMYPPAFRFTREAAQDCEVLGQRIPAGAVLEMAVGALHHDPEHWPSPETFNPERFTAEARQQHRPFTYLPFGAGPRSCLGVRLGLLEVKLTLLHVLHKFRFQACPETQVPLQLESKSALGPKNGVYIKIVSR
# Description: (§1) In 0,6 IU/ml thrombin stimulated human washed platelets the IC50 (μM) for inhibition of TX formation (measured by TXB2 specific radioimmunoassay) was 1,1 for LG 82-4-00 and 1,3 for LG 82-4-01. The two substances inhibited TXB2 -formation and 1-2 μg/ml collagen induced platelet aggregation by more than 95%.
# platelet aggregation [2] = assay: collagen induced platelet aggregation; type: cell-based, human; details: 1-2 μg/ml collagen; concentration not given
# Description: as §1
SMILES,proaggregatory activity (platelet aggregation [1]),IC50 (thromboxane synthetase),inhibition of TXB2-formation (thromboxane synthetase),specificity as inhibitor of thromboxane synthetase (thromboxane synthetase),inhibition of collagen induced platelet aggregation (platelet aggregation [2])
"Cl.O=C(O)c1ccc(OCCn2ccnc2)s1 [LG 82-4-00, 5-[2-(1-Imidazolyl)-1-ethoxy]thiophene-2-carboxylic acid hydrochloride]",Neither,1100 nM,more than 95%,specific inhibitors of thromboxane synthetase,more than 95%
"Cl.O=C(O)c1cc(Cl)c(OCCn2ccnc2)s1 [LG 82-4-01, 4-Chloro-5-[2-(1-imidazolyl)-1-ethoxy]-thiophene-2-carboxylic acid hydrochloride]",Neither,1300 nM,more than 95%,specific inhibitors of thromboxane synthetase,more than 95%
